{"source": "patent US5958966A", "about": "“Treatment of aberrant cellular states with biomodulators” (University of New Mexico, priority 1995, dated 1999)", "key": {"[1]": {"test_system": "canine glioma (CG) cells", "test": "proton NMR T-2* linewidth of canine glioma cells", "assay_type": "cell-based", "set-up": "T-2* linewidth / T-2* linewidth after treatment withdrawal / T-2* linewidth after t-butanol extraction: unit not given here", "settings": "for T-2* linewidth after treatment withdrawal: 4 weeks treatment then 1 week without, mean ± SD of 3; for T-2* linewidth after t-butanol extraction: treated CG cells", "protocol": "The cells used for all these experiments are between passage 30 and passage 75.\nThe cell surface oligosaccharide display was assessed by methods developed previously. In brief, cells from a sub-culturing were aliquotted into 96 well trays at 5×10^5 cells per ml, 100 μL aliquots. […] Optimal lectin concentrations (5 μg/ml)were used to give 80 to 90% saturation of the available sites. Three carbohydrate ligands at 10 μg concentrations in triplicate or quadruplicate were then used to prepare competition curves for the lectin binding. The Bound over Free (B/F) ratio was calculated and the Ligand microprocessor program was used to determine the optimal fit of the data to a polynomial generated model. The Gibb's Free Energy (GFE) was calculated from the Scatchard data on the competition assay by the following equation: GFE=-RT 1n Kequit. The proton NMR linewidth measurements were conducted as described previously."}, "[2]": {"test_system": "B16 melanoma cells", "test": "effect of swainsonine on B16 melanoma solid tumor growth", "assay_type": "in vivo, mouse", "settings": "for inhibition of B16 growth: 1.0, 0.01 and 0.001 μg Sw (p<0.5)", "protocol": "The B16 melanoma cells were purchased from American Type Culture Collection (ATCC). They were maintained in complete A-MEM (SIGMA) (with 10% fetal calf serum (FCS) (Sigma), 100 U/ml penicillin (Sigma), 100 μg/ml streptomycin (Sigma) and 2 mM utamine (Sigma)) in Corning 75 cm^2 straight necked flasks (T75) and grown with 5.5% CO2 in air with 95% humidity in a New Brunswick Scientific water jacketed incubator. […] They were harvested using 1× Trypsin-EDTA (Sigma), centrifuged at 100×g with a Beckman TJ6 centrifuge, counted using a hemocytometer and stained with trypan blue to determine viability. The cells used for injection into the mice were washed three times in phosphate buffered saline (PBS), counted and resuspended in PBS at a final concentration of 6×10^6 cells per ml.\nThe swainsonine, purchased from Boehringer Mannheim, was initially suspended in PBS at 100 μg/ml. Subsequent dilutions utilized in the following experiments were made in PBS.\nFifteen female C57B1/6 mice (6 weeks old, from Harlan Sprague Dawley Laboratories) were treated 3 times per week on a Monday-Wednesday-Friday (MWF) schedule for three weeks prior to the injection of the 6×10^5 B16 melanoma cells. The treatment consisted of 0.1 ml (total volume) intraperitoneal injections of swainsonine in the mornings before 9:00 am. The treatment groups were as follows:\nThe MWF treatment with the swainsonine continued after the tumor cell injection until the termination of the study. Once the tumor was palpable, electronic calipers were used to measure the length (l), width (w) and depth (d) of the tumor. The volume of the tumor was then determined by V=πr^2 ×d, with the assumption that the tumor is a […], then r=(l+w)/4.\nThe effect of swainsonine on the growth of B16 melanoma solid tumors in vivo was investigated by pretreating the mice for 3 weeks and then injecting melanoma cells into the right shoulder area. Palpable tumors in the control group (0.0 μg Sw) were present on day 5 post tumor cell injection. These tumors were the size of a grain of rice and could not be accurately measured. FIG. 66 graphically presents tumor growth rate versus time. Tumors whose size could be reliably measured were present on day 7 in the controls (Table I). […] This was a delay of two day in both instances. The 0.1 μg Sw slowed growth of the melanoma tumor. The tumors in the 0.1 μg Sw group were 74% (p=0.03) smaller in size on day 9 compared to the controls and 68% (p=0.003) smaller on day 11."}, "[3]": {"test_system": "plaque forming cells (splenocytes)", "test": "effect of swainsonine on humoral immunity (PFC assay)", "assay_type": "in vivo, mouse", "settings": "for PFC versus control in words: listed as Sw", "protocol": "The plaque forming cell (PFC) assay was done according to the method developed by Jerne and Nordin (1963). The splenocytes were washed in serum-free RPMI-1640 and brought to a final concentration of 1×10^6 cell/100 μl. Sheep red blood cells (sRBC), from The Colorado Serum Company, were labelled with protein A from Staphylococcus aureus (Sigma). The sRBC's were washed 3 times with saline (0.85% NaCl), the packed cells were then incubated with 1 ml of protein A (0.5 mg/ml saline) and 10 ml of saline containing 0.1 μl of CrCl3 (35% solution) (Aldrich), for 20 minutes. The sRBC's were then washed 3 times with PBS and suspended in PBS to make a 30% solution. The sRBC's (50 μl) and splenocytes (100 μl) were combined with SeaPlaque agarose (FMC Corporation) and smeared on a 75 mm×50 mm microscope slide to form a lawn of target red blood cells with uniformly dispersed effector cells. Each sample was done in triplicate. The agarose was allowed to harden and the slides were placed in trays containing serum-free RPMI-1640. The trays were incubated at 37° C. in a CO2 incubator for 90 min. After incubation the slides were placed in slide holders containing normal saline for a wash step. The rabbit/anti-mouse antibody (DAKO Corporation) was diluted 1:400 with serum free RPMI-1640 and added to the slide trays. Following another 90 min. incubation at 37° C. in a CO2 incubator, the slides were again washed. Fresh frozen guinea pig complement (GIBCO) (2%) in serum-free RPMI-1640 was added to the slide trays and incubated for another 60 to 90 min. depending on the time necessary for plaque formation. The number of plaques were counted and the results reported as number of plaque forming cells per 1×10^6 splenocytes.\nMice were pretreated for 3 weeks with Sw (0.1 μg and 0.01 μg), and then received B16 cells. At 3 time points post tumor cell injection (day 0, 7 and 14), the mice were sacrificed and the spleens were removed. The cells were then used to determine the effect of Sw on humoral immunity. […] The presence of a day 7 tumor caused a return to baseline for all the groups. A significant difference (p=0.001) was seen on day 14 post tumor injection with the mice treated with 0.01 μg Sw."}, "[4]": {"test_system": "plaque forming cells", "settings": "cited from earlier work"}, "[5]": {"test_system": "α-mannosidase II", "settings": "cited from earlier work"}}, "note": "Entries after “also recorded” stand apart in the source; their conditions may differ.", "data": [{"smiles": "O[C@H]1[C@H]2[C@H](O)CCCN2C[C@H]1O", "note": "[Swainsonine, swainsonine]", "values": [{"measurement": "T-2* linewidth after treatment withdrawal", "setting": "[1]; 213 k", "value": "520 ± 26"}, {"measurement": "T-2* linewidth after treatment withdrawal", "setting": "[1]; 223 k", "value": "510 ± 18"}, {"measurement": "T-2* linewidth after treatment withdrawal", "setting": "[1]; 233 k", "value": "430 ± 15"}, {"measurement": "T-2* linewidth after treatment withdrawal", "setting": "[1]; 243 k", "value": "360 ± 10"}, {"measurement": "linewidth after withdrawal versus untreated control", "setting": "[1]; 4 weeks treatment, 1 week withdrawal", "value": "still significantly different from control values"}, {"measurement": "linewidth change", "setting": "[1]; CG cells, biomodulator treatment versus control, listed as Sw", "value": "significant (P>0.01) decreases in linewidth; also recorded: higher level of linewidth reduction than the PWM treatment"}, {"measurement": "T-2* linewidth", "setting": "[1]; Four week of treatment, 213 k, mean ± SD of triplicate", "value": "480 ± 35"}, {"measurement": "T-2* linewidth", "setting": "[1]; Four week of treatment, 223 k, mean ± SD of triplicate", "value": "330 ± 40"}, {"measurement": "T-2* linewidth", "setting": "[1]; Four week of treatment, 233 k, mean ± SD of triplicate", "value": "300 ± 8"}, {"measurement": "T-2* linewidth", "setting": "[1]; Four week of treatment, 243 k, mean ± SD of triplicate", "value": "230 ± 10"}, {"measurement": "T-2* linewidth", "setting": "[1]; One week of treatment, 213 k", "value": 580}, {"measurement": "T-2* linewidth", "setting": "[1]; One week of treatment, 223 k", "value": 325}, {"measurement": "T-2* linewidth", "setting": "[1]; One week of treatment, 233 k", "value": 285}, {"measurement": "T-2* linewidth", "setting": "[1]; One week of treatment, 243 k", "value": 265}, {"measurement": "T-2* linewidth after t-butanol extraction", "setting": "[1]; 213 k, extracted control 367 ± 15", "value": "316 ± 33"}, {"measurement": "T-2* linewidth after t-butanol extraction", "setting": "[1]; 223 k, extracted control 337 ± 29", "value": "271 ± 13"}, {"measurement": "T-2* linewidth after t-butanol extraction", "setting": "[1]; 233 k, extracted control 299 ± 30", "value": "243 ± 29"}, {"measurement": "T-2* linewidth after t-butanol extraction", "setting": "[1]; 243 k, extracted control 229 ± 9", "value": "194 ± 7"}, {"measurement": "delay of onset of tumor growth", "setting": "[2]; 0.1 μg Sw", "value": "two"}, {"measurement": "tumor size reduction versus control", "setting": "[2]; 0.1 μg Sw, day 9, p=0.03", "value": 74, "unit": "%"}, {"measurement": "tumor size reduction versus control", "setting": "[2]; 0.1 μg Sw, day 11, p=0.003", "value": 68, "unit": "%"}, {"measurement": "first day of palpable tumors", "setting": "[2]; 0.1 μg Sw, control day 5", "value": 7, "unit": "days"}, {"measurement": "first day of measurable tumors", "setting": "[2]; 0.1 μg Sw, control day 7", "value": 9, "unit": "days"}, {"measurement": "effect on growth", "setting": "[2]; 1.0 μg Sw", "value": "causes enhanced growth"}, {"measurement": "inhibition of B16 growth", "setting": "[2]", "value": "no effect on delaying growth"}, {"measurement": "inhibition of B16 growth", "setting": "[2]; listed as Sw", "value": "less effective at inhibiting the B16 growth"}, {"measurement": "increase in plaque forming cells", "setting": "[3]; 0.01 μg Sw, before tumor, p=0.001", "value": 89, "unit": "%"}, {"measurement": "increase in PFC over mice without Sw with day 14 tumors", "setting": "[3]; 0.01 μg Sw, day 14", "value": 108, "unit": "%"}, {"measurement": "increase in PFC over mice without tumors or treatment", "setting": "[3]; 0.01 μg Sw, day 14", "value": 144, "unit": "%"}, {"measurement": "PFC versus control in words", "setting": "[3]; 0.1 μg Sw without tumor (p=0.04)", "value": "not as significantly different from the control group; also recorded: significant changes in the formation of plaques prior to tumor exposure"}, {"measurement": "PFC versus control in words", "setting": "[3]; 0.1 μg Sw, day 14 (p=0.13)", "value": "not a significant difference between the controls and these treated mice; also recorded: even higher levels"}, {"measurement": "PFC numbers, SW alone", "setting": "[4]; SW alone", "value": "no changes in PFC numbers"}, {"measurement": "antibody formation after immunosuppressive factor", "setting": "[4]; Sw 3.7-100 mg/kg i.p. 5 days", "value": "return to normal levels of antibody production"}, {"measurement": "inhibition of α-mannosidase II / anticancer effects", "setting": "[5]", "value": "known to have anticancer effects possibly mediated through its inhibition of α-mannosidase II"}]}]}
